Data reported in patent publication US8168675B2, “Compositions and methods for treating neurodegenerative diseases” (Marin Bio Co., Ltd., priority 2008, dated 2012).

How the values were obtained:
Format in all cases: in vivo
C57BL/6 (B6) mice [1] = assay: Cochlear histopathology (hair cells and SGCs); details: dietary supplementation from 4 to 15 months of age, HE-stained cochlear sections, Control showed severe loss
Experimental: (§1) Details on the methods used to house and feed male inbred C57BL/6 (B6) mice have been described (Pugh et al., Cancer Res. 59:1642 [1999]). Briefly, Mice were divided into five groups: control, α-lipoic acid (ALA), CLA, coenzyme Q10 (CQ), and phenylalanine (PA). The compound treatment groups were fed the same caloric intake as controls, but were supplemented with ALA (150 mg/kg), CLA (5000 mg/kg), CQ (50 mg/kg), and PA (250 mg/kg) from 4 months of age until 15 months of age (FIG. 1).
Detailed protocols for tissue processing have been described (Someya et al., [2007], supra). Briefly, 4% paraformaldehyde-fixed and paraffin-embedded specimens were sliced into 4 μm sections, mounted on silane-coated slides, stained with Haematoxylin and Eosin (HE), and observed under a light microscope (Leica Microsystems, Bannockburn, Ill.). The Rosenthal's canal was divided into three regions: apical, middle and basal (Keithley et al., [2004], supra) and the three regions were used for evaluation of cochlear histopathology. Five mice were used for each group that were the same mice as those used in the ABR tests. Five modiolar sections obtained in every fifth section from one unilateral cochlea were evaluated per mouse. The same animals were used for spiral ganglion cell counting.

C57BL/6 (B6) mice [2] = assay: Spiral ganglion cell counting (SGC density); details: dietary supplementation from 4 to 15 months of age, *P<0.05, n=5
Experimental: as §1
SGCs were identified by the presence of a nucleus. The SGC density was calculated as the number of SGCs per 1 mm^2. Five sections of the unilateral apical turn were evaluated in one cochlea per mouse. Data were analyzed using the two-tailed standard t-test. All data were reported as mean±S.E.M.

C57BL/6 (B6) mice [3] = assay: ABR hearing threshold measurement in aged mice (presbycusis model); details: dietary supplementation from 4 to 15 months of age, *P<0.05, n=5 vs Control
Experimental: as §1
Detailed protocols for ABR measurement have been described (Yamasoba et al., Neurosci Lett. 395:18 [2005]). […] Mice were anesthetized with a mixture of xylazine hydrochloride (10 mg/kg, i.m.) and ketamine hydrochloride (40 mg/kg, i.m.). Five to seven mice per group were used for this study, and the same mice were used for the following histopathological analyses. Data were examined using the two-tailed standard t-test and were tested for statistical significance using a One Way ANOVA test (GraphPad Prisim 5.0, San Diego, Calif.). All data were reported as mean±S.E.M.

Compound	loss of hair cells and SGCs in the cochleae (C57BL/6 (B6) mice [1])	mean spiral ganglion cell density vs Control mice (C57BL/6 (B6) mice [2])	hearing by ABR thresholds at 8 and 32 kHz (C57BL/6 (B6) mice [3]; 8 and 32 kHz)	hearing by ABR thresholds at 32 kHz (C57BL/6 (B6) mice [3])
COC1=C(OC)C(=O)C(C/C=C(\C)CC/C=C(\C)CC/C=C(\C)CC/C=C(\C)CC/C=C(\C)CC/C=C(\C)CC/C=C(\C)CC/C=C(\C)CC/C=C(\C)CCC=C(C)C)=C(C)C1=O [CQ, coenzyme Q10]	no or only a few loss	significantly higher	normal hearing	
conjugated linoleic acid [CLA]				normal hearing
N[C@@H](Cc1ccccc1)C(=O)O [PA, phenylalanine]	no or only a few loss	significantly higher		normal hearing
O=C(O)CCCCC1CCSS1 (stereo not drawn) [ALA, α-lipoic acid]	no or only a few loss	significantly higher		normal hearing
